Here are results for three molecules from patent US20070128669A1, “Serum-free expansion of cells in culture” (Institute for Chemical Genomics, priority 2005, published 2007).

Assay [1] has as its system Nanog gene expression in ESCs. The experiment in a line: Real-time RT-PCR for Nanog in feeder-free ESCs. Format: cell-based, mouse. As to conditions: feeder-free ESCs; IQ-1 4 μg/ml or LIF 1000 U/ml, 21 hrs. The method, then:
FIG. 2. […] Real-time RT-PCR for Nanog was performed. The control expression level of Nanog at day 0 was set at 1. FIG. 2B, removal of IQ-1 decreases Nanog gene expression in ESCs. IQ-1 was removed from ESCs which had been cultured under feeder-free system and in the presence of IQ-1 (4 μg/ml), for three days. At the end of this period, mRNA was isolated and real-time RT-PCR was performed to assay for Nanog gene expression. FIG. 2C, effects of IQ-1 were not mediated through Stat3 signaling pathway as judged by luciferase reporter assay. Feeder-free ESCs, transfected with the pSTAT3-TA-Luc reporter, were exposed to IQ-1 at the indicated doses, or LIF. All error bars represent mean±SD.
Real-time RT-PCR. Total RNA was isolated and reverse-transcribed using SuperScript III (Invitrogen). Real-time RT-PCR (Sybr Green; BioRad) was performed using with the gene-specific primers: […]

Assay [2] concerns Stat3 signaling pathway. In words: pSTAT3-TA-Luc luciferase reporter assay in ESCs. It is filed as cell-based, mouse. As to conditions: 24 hours exposure. The method, then: Transfection and Luciferase assay. ESCs were cultured in 96-well cell culture dishes coated with a 0.1% aqueous gelatin solution and transfected with 0.2 μg/well of pSTAT3-TA-Luc (CLONTECH), using Lipofectamine 2000 (Invitrogen). After 6 hours, cells were washed and exposed to either IQ-1 at the indicated doses, or LIF, for 24 hours. Transfection efficiencies were normalized with pRL-null luciferase plasmid. Luciferase assays were performed with the DUAL-Luciferase Reporter Assay System (Promega).
A general note: A reporter such as luciferase makes a cellular process visible.

Assay [3] addresses T1, CBP/β-catenin complex (Mus musculus, UniProt P45481).
T1 construct: endogenous in cells; host or cells: P19 cells (nuclear fraction)
The experiment in a line: Co-immunoprecipitation of β-catenin with CBP in P19 cells. As to conditions: Wnt3a, 10 μM, 24 hours. Format: cell-based. How it is done: (§1) Co-immunoprecipitation of β-catenin with CBP or p300 in P19 cells. Co-immunoprecipitation was performed as described in (27). Briefly, P19 cells were treated with 10 μM ICG-001 or 10 μM IQ-1 (control DMSO was 0.025%) for 24 hours, after which they were washed and lysed […]. Nuclear fraction was isolated and precleared with antibodies to CBP(A-22) or p300(N-15). β-catenin was detected using a mouse monoclonal antibody (Becton Dickinson) at a dilution of 1:5000.

In assay [4] the test system is C2C12 myoblasts. The experiment in a line: Differentiation of C2C12 myoblasts in growth medium. It is filed as cell-based. As to conditions: 10 μM in growth medium. The method, then: FIG. 12. FIG. 12 illustrates that differentiation of C2C12 myoblasts was induced by 10 μM ICG-001 in growth medium, similar to differentiation medium.
Assay [5] concerns p300/β-catenin complex. The experiment in a line: Co-immunoprecipitation of β-catenin with p300 in P19 cells. It is filed as cell-based. As to conditions: Wnt3a, 10 μM, 24 hours. How it is done: as §1
Assay [6] has as its system ESCs. The experiment in a line: Long term feeder-free culture of ESCs in serum-free (15% KSR) media. It is filed as cell-based, mouse. How it is done:
FIG. 7. […] ESCs were cultured in 15% KSR, 4 μg/ml of IQ-1 and 100 ng/ml Wnt3a. ESCs were passaged 2-3 times per week at 1×10^5-1×10^6 cells per 6 cm dish and cells were counted.
FIG. 8. […] AP activity of ESCs cultured for 7 days in IQ-1 containing media supplemented with 15% FCS or 15% KSR. […] (Error bars represent ±S.D.)
FIG. 9. […] Over the 42-day culture period, ESCs cultured in the media in the presence of IQ-1 and Wnt3a maintain expression of the pluripotency markers, (a) Nanog, (b) Oct3/4 and (c) Rex-1. The expression level on day 0 was set as 1.
Cell culture. ESCs, D3ES (ATCC CRL-1934) were maintained on Mitomycin C treated MEFs in mouse ESC medium containing DMEM (Invitrogen) supplemented with 15% FBS (Invitrogen), 0.1 mM MEM nonessential amino acids (Invitrogen), 0.1 mM 2-mercaptoethanol (Sigma), 2 mM L-glutamine (Invitrogen) and 1,000 U/ml LIF (CHEMICON). To remove MEFs, cells were collected by trypsinization and plated on gelatin-coated culture dishes for 20 min. Non-adherent cells consisting mainly of ESCs were replated on gelatin-coated culture dishes again. Non-adherent cells were used for further experiments. P19 cells were cultured according to conditions recommended by the ATCC. Cells were incubated at 37° C. in a 5% CO2 incubator. Purified Wnt3a was purchased (R&D Systems).

T1 sequence (P45481 2-2441 limits assumed, one chain of several): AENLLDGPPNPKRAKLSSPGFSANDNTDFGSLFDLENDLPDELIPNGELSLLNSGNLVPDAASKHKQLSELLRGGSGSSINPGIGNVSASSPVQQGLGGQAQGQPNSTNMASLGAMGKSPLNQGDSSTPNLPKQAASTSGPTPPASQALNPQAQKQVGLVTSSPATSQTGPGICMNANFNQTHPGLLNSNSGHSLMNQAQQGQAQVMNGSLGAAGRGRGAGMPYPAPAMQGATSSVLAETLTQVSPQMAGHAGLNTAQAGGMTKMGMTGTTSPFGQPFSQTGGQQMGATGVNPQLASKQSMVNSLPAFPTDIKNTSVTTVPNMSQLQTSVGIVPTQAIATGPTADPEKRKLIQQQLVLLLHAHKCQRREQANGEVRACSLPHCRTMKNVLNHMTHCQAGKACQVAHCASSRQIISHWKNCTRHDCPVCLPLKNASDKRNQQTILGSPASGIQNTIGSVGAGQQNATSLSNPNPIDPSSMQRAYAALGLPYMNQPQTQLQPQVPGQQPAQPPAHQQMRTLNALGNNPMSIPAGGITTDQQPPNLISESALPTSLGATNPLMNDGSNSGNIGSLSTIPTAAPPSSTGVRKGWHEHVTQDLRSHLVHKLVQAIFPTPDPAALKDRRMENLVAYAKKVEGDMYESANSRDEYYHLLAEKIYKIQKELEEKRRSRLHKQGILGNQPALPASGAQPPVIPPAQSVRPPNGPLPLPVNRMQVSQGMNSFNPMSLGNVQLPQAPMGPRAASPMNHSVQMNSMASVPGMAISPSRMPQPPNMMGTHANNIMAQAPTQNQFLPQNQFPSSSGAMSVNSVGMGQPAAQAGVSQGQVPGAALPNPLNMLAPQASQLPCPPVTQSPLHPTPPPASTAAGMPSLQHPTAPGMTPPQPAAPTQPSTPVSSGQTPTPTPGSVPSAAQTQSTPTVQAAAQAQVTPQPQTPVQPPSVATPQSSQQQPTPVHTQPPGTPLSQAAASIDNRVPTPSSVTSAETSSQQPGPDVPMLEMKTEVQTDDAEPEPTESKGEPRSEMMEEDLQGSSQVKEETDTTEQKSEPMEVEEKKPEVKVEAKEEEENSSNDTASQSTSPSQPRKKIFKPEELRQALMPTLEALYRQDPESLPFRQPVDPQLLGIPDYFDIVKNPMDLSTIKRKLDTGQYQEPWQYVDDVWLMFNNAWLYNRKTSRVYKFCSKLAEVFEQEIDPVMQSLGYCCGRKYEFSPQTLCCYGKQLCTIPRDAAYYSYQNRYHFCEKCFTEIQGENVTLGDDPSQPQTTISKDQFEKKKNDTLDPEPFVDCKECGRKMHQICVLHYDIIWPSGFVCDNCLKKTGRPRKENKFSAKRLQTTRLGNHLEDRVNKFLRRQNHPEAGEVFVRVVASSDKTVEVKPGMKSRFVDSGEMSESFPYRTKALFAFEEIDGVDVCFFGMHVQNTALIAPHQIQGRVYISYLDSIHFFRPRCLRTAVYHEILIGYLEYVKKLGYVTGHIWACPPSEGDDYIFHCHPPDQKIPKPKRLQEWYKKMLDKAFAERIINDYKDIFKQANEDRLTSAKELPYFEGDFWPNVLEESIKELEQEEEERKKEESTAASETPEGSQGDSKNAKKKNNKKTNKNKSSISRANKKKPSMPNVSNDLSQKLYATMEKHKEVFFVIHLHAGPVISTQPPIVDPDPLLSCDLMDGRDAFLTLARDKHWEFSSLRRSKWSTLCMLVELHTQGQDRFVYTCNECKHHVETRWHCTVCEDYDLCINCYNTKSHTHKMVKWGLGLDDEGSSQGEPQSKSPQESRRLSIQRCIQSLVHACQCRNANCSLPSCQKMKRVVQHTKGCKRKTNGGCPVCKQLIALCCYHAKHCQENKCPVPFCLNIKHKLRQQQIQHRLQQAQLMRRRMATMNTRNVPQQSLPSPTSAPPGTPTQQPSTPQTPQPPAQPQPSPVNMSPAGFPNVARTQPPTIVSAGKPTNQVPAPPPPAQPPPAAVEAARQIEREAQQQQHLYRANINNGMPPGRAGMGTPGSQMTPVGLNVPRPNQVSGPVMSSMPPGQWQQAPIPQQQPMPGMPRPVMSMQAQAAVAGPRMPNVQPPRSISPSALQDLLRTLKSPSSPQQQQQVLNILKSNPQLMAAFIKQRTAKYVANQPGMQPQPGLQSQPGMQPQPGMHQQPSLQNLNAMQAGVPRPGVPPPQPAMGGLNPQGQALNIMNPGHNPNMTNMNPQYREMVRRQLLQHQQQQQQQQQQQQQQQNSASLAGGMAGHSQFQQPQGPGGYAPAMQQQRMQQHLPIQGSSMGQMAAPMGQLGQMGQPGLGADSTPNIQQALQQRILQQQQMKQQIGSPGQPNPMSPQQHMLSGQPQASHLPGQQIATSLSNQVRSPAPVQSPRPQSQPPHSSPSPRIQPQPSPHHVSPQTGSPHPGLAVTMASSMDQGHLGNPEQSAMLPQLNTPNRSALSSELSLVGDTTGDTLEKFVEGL

As for “LIF: cytokine leukemia inhibitory factor (CHEMICON)”, the Nanog expression result in assay [1] is “only slightly increased Nanog levels”. In addition, the Stat3/luciferase expression entry in assay [2] is “elicited a significant response”.
`O=C1[C@H](Cc2ccc(O)cc2)N2C(=O)CCN(C(=O)NCc3ccccc3)[C@H]2CN1Cc1cccc2ccccc12` [ICG-001, reference compound]: the “relative amount of β-catenin associated with CBP” value in assay [3] is “at the expense of the CBP/β-catenin interaction”. Besides, the “differentiation of C2C12 myoblasts” value in assay [4] was “induced the differentiation of C2C12 myoblasts”. For the same molecule, in assay [5], the p300/β-catenin interaction entry was “significantly enhanced the p300/β-catenin interaction”.

B1: Wnt3a: purified Wnt3a protein purchased from R&D Systems (protein, UniProt P56704 19-352, looked up)
Protein Wnt-3a: SYPIWWSLAVGPQYSSLGSQPILCASIPGLVPKQLRFCRNYVEIMPSVAEGIKIGIQECQHQFRGRRWNCTTVHDSLAIFGPVLDKATRESAFVHAIASAGVAFAVTRSCAEGTAAICGCSSRHQGSPGKGWKWGGCSEDIEFGGMVSREFADARENRPDARSAMNRHNNEAGRQAIASHMHLKCKCHGLSGSCEVKTCWWSQPDFRAIGDFLKDKYDSASEMVVEKHRESRGWVETLRPRYTYFKVPTERDLVYYEASPNFCEPNPETGSFGTRDRTCNVSSHGIDGCDLLCCGRGHNARAERRREKCRCVFHWCCYVSCQECTRVYDVHTCK
For the molecule B1, in assay [6] (7 days, IQ-1 containing media, 15% KSR), the “AP activity of ESCs on addition of Wnt3a to IQ-1 containing 15% KSR media” value is “increases AP activity”. Also, in assay [6] (KSR media), the “ESC proliferation, Wnt3a alone” value is on record as “induced proliferation” and the “expression of stem cell markers Oct4, Nanog, Rex1, Wnt3a alone” value is given as “not sufficient to maintain the expression”. Besides, in assay [6] (KSR media, single agent), the “maintenance of undifferentiated status of ESCs, agent alone” value is listed as “Neither Wnt3a nor IQ-1 alone was sufficient”.
